Counter-ions that a name gives are not always drawn. Like-named read-outs stand apart in the source and are kept apart here.
Key:
[1] = mouse, in vivo
Excerpt: The acute toxicity of these compounds is quite low. […]. The aliphatic side-chains of these aliphatic propargyl compounds are similar to those that exist in endogenous lipids and fatty acids and such aliphatic chains are readily oxidized in vivo. […]

dopamine neurons [2] = conditions: animal study (Tatton); cited from earlier work
monoamine oxidase = assay: Inhibition of rat liver monoamine oxidase deamination of dopamine (DA, mixed-type MAO A and B substrate) in vitro; assay type: biochemical; conditions: substrate DA (5 × 10^-4 M), average of at least 3 independent experiments
Experimental: (§1) The aliphatic propargylamine inhibitors (from 1×10^-10 M to 1×10^-4 M) were preincubated with the MAO for 20 min. at ambient room temperature and then the residual enzyme activities were determined by addition of the substrates, followed by further incubation at 37° C. for 30 min. The enzymatic reactions were terminated by the addition of citric acid and the aldehyde products were extracted with toluene: ethyl acetate (1:1, v/v) and the radio-activities assessed in a scintillation counter.

[3] = reported; cited from earlier work
MAO-A [4] = target: T1, MAO-A (Mus musculus, UniProt Q64133); assay: in vivo; conditions: ip, read-out: 5-HT ID50
T1 construct: MAO activities in the mouse brain after; from tissue
T1 sequence (Q64133 1-526): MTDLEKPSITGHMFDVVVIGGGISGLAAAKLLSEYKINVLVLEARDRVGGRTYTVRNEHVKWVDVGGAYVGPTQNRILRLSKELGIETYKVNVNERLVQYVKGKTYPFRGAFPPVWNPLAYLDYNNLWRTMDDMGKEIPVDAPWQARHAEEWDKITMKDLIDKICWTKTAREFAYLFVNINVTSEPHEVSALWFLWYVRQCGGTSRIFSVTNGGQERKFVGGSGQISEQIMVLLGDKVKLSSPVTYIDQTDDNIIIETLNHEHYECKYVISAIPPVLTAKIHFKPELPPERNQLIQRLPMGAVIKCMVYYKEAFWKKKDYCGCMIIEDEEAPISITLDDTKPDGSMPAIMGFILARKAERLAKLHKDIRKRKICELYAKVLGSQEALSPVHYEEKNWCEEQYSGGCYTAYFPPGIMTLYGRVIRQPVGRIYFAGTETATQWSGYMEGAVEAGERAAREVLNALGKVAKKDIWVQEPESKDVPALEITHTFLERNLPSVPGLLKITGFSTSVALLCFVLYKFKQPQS
Experimental: (§2) Albino Swiss mice were used in this study. The animals were injected intraperitoneally with different doses of the aliphatic propargylamines in 100 μL saline.
(§3) 0.5, 1, 2, 5, 10, 20, 50, 100 mg/Kg. Striata were dissected from the brai
(§4) two hours after i.p. administration of the drugs. MAOA and MAOB activitie
(§5) were determined immediately. The values were estimated from doseresponse

Parkinson's disease = conditions: Deprenyl alone; cited from earlier work
MAO-B [5] = target: T2, MAO-B (Mus musculus, UniProt Q8BW75); assay: MAO-B activity in the mouse brain after oral administration (substrate PE); assay type: in vivo; conditions: 2 hours; for ED50: mouse, oral, average of 5 animals per dose, estimated from dose response curves, read-out: Inhibition of MAO-B activity, dose response (ID50); for Relative activity PE: oral 10 mg/Kg, PE (1.9 × 10^-5 M), mean ± standard error, saline = 100
T2 construct: MAO activities in the mouse brain after; from tissue
T2 sequence (Q8BW75 1-520): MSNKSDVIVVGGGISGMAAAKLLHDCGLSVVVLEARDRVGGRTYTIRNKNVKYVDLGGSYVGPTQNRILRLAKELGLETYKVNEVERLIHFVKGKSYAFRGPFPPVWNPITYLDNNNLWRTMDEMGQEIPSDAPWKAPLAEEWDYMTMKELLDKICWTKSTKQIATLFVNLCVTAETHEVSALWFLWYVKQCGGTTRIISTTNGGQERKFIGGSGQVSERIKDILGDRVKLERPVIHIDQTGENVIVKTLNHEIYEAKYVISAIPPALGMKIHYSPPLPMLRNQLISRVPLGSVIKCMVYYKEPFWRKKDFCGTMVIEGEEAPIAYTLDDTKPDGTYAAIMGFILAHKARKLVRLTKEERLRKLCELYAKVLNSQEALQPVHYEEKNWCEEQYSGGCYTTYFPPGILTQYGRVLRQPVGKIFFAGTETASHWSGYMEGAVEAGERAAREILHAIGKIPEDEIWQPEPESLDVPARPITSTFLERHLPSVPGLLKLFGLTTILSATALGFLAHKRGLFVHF
Experimental: (§6) Table 3 indicates the MAO activities in the mouse brain following oral administration of the aliphatic propargylamines.
(§7) of each compound. Striata were dissected from the brain two hours after
(§8) the administration of the drugs. MAOA and MAOB activities were determined
Striata were dissected from the brain two
hours after oral administration of the drugs. MAOB activities were then
determined immediately. The values were estimated from doseresponse

MAO-A [6] = target: T1, MAO-A; assay type: in vivo
Experimental: as §6, §7, §8

MAO-B [7] = target: T2, MAO-B; assay: in vivo; assay type: in vivo; conditions: for ED50: read-out: PE ID50; for Ratio MAO-A/MAO-B: 120 min
Experimental: as §2, §3, §4, §5

MAO-B [8] = target: T3, MAO-B (Rattus norvegicus, UniProt P19643); assay: biochemical; assay type: biochemical; conditions: for IC50: read-out: PE IC50
T3 sequence (P19643 1-520): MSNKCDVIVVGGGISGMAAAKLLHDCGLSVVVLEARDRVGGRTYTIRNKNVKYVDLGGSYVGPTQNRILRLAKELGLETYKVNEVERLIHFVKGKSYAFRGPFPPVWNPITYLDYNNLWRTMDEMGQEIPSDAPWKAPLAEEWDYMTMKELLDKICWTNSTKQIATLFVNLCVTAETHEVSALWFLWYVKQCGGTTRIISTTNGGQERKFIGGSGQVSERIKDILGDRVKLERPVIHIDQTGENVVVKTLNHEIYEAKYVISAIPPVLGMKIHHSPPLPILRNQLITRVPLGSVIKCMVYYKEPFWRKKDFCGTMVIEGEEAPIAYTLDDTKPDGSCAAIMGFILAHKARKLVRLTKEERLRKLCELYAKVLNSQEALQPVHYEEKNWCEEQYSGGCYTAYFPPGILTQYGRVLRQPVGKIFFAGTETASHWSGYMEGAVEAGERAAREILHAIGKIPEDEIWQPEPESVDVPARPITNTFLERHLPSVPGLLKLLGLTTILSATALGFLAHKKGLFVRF
Experimental: as §1

MAO-A [9] = target: T4, MAO-A (Rattus norvegicus, UniProt P21396); assay: biochemical; assay type: biochemical; conditions: substrate 5-HT (5 × 10^-4 M); rat liver MAO, in vitro; average of at least 3 independent experiments
T4 sequence (P21396 1-526): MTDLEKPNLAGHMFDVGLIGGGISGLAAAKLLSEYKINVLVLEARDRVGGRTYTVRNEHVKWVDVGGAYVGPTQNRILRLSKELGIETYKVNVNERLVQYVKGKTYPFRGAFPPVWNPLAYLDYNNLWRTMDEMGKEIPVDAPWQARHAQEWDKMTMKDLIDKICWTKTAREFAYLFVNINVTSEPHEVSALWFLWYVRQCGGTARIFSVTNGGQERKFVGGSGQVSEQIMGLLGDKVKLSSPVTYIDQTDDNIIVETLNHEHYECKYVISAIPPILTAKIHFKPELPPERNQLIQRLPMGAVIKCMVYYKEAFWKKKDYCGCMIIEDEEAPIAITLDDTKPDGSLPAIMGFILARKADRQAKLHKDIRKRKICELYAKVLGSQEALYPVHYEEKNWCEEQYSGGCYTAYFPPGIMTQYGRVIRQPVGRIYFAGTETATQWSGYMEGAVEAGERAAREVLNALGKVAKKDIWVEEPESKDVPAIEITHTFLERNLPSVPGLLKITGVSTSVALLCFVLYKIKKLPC
Experimental: as §1

noradrenaline neurons = assay: Protection of noradrenaline neurons against DSP-4 induced neurotoxicity in the mouse brain; assay type: in vivo; conditions: Experiment II, pretreatment 10 mg/Kg i.p., mean ± S.E.
Experimental: The analyses of DSP-4-induced neurotoxic effects were conducted in accordance with […] and Jonsson (Eur. J. Pharmacol. 103 (1984), 269-278), hereby incorporated by reference. Mice were pretreated with M-2-PP (10 mg/Kg) and 2-HxMP (10 mg/Kg) or saline as control via i.p. administration and one hour later challenged with a single i.p. dose of DSP-4 (DSP-4: […] One week after treatment noradrenaline content in the putamen of these mice was analyzed. The results which are shown in Table 5 are mean ± S.E. of five animals in each group.

dopamine neurons [10] = assay: Protection of dopamine neurons against MPTP-induced neurotoxicity in the mice brain; assay type: in vivo, mouse
Excerpt: Three days later, dopamine levels and dopamine uptake site densities (GBR bindings) were estimated.

[11] = human, in vivo; cited from earlier work
Solubility in water = conditions: free base
[12] = 2 hours after administration, 5-HT 5 × 10^-4 M, estimated from dose response curves
[13] = ID50 i.p. in mice versus IC50 in vitro
[14] = mouse, ip, 2 hours after administration, […], estimated from dose response curves

For `C#CCN(C)C(C)CC.Cl.O=C(O)C(=O)O` (racemic) [Example 2-BuMP, N-(2-Butyl)-N-methylpropargylamine hydrochloride and oxalate], the “fatality after oral administration” value [1] was “no fatality”.
In the case of `C#CCN(C)[C@H](C)Cc1ccccc1` [Deprenyl], the “protection of dopamine neurons after MPTP washed out” value (dopamine neurons [2]) is listed as “shown to protect dopamine neurons even after the MPTP has been completely washed out of the tissues”, the IC50 (monoamine oxidase) is listed as 0.3 µM and the LD50 [3] is listed as 445 mg/kg. The ED50 (MAO-A [4]; 2 h) was 25 mg/kg and the “onset of disability in early, otherwise untreated Parkinson's disease” value (Parkinson's disease) was “can significantly delay the onset of disability”.
For `C#CCN(C)CCCC.Cl` [Example 1-BuMP, N-(1-Butyl)-N-methylpropargylamine hydrochloride], the ED50 (MAO-B [5]) was 15 mg/kg, the “Relative activity PE” value (MAO-B [5]) was 67 ± 9% and the “Relative activity 5-HT” value (MAO-A [6]; oral 10 mg/Kg, 2 hours, 5-HT (5 × 10^-4 M), mean ± standard error, saline = 100) was 98 ± 5%. For the same compound, the “fatality after oral administration” value [1] was “no fatality”, the ED50 (MAO-A [4]; [12]) was 100 mg/kg and the “MAO-B ID50 (mg/Kg) / IC50 ([…] × 10^-6 M)” value (MAO-B [7]; [13]) was 2 (mg/Kg)/(1 × 10^-6 M). For the same compound, the “inhibition of brain MAO-B activity in vivo (in words)” value (MAO-B [7]; mouse, i.p., two hours after treatment) was “more potent than the longer chain analogs at inhibiting brain MAO-B activity”, the ED50 (MAO-B [7]; [14]) was 2 mg/kg and the “Ratio MAO-A/MAO-B” value (MAO-B [7]; ratio of ID50 values, i.p.) was 50. For the same compound, the “Ratio MAO-A/MAO-B” value (MAO-B [8]; ratio of IC50 values, in vitro) was 100, the IC50 (MAO-B [8]) was 1 µM and the IC50 (MAO-A [9]) was 100 µM.
`C#CCN(C)C(C)CCCC.Cl` (stereo not drawn) [Example 2-HxMP, N-(2-Hexyl)-N-methylpropargylamine hydrochloride] showed a Noradrenaline in putamen (noradrenaline neurons; DSP-4 50 mg/Kg, p < 0.01 vs DSP-4 (DSP-4 alone 56)) of 84 ± 0.04%, a Noradrenaline in putamen (noradrenaline neurons; saline, no DSP-4) of 104 ± 0.05% and an ED50 (MAO-B [5]) of 1 mg/kg. For the same compound, the ED50 (MAO-A [4]; [12]) was 40 mg/kg, the “MAO-B ID50 (mg/Kg) / IC50 ([…] × 10^-6 M)” value (MAO-B [7]; [13]) was 2 (mg/Kg)/(1 × 10^-6 M) and the ED50 (MAO-B [7]; [14]) was 0.2 mg/kg. For the same compound, the “Ratio MAO-A/MAO-B” value (MAO-B [7]; ratio of ID50 values, i.p.) was 200, the “Ratio MAO-A/MAO-B” value (MAO-B [8]; ratio of IC50 values, in vitro) was 1000 and the IC50 (MAO-B [8]) was 0.1 µM. For the same compound, the IC50 (MAO-A [9]) was 100 µM.
For `C#CCN(C)CCCCC.O=C(O)C(=O)O` [Example M-1-PP, N-(1-Pentyl)-N-methylpropargylamine oxalate], the “Relative activity PE” value (MAO-B [5]) was 72 ± 17%, the “Relative activity 5-HT” value (MAO-A [6]; mouse, in vivo, po, 10 mg/kg) was 97 ± 13 and the Dopamine (dopamine neurons [10]; 2.0 mg/Kg + MPTP) was 3.1 μg/gm. The Dopamine binding site (dopamine neurons [10]; 2.0 mg/Kg + MPTP) was 221 pmol/mg, the Dopamine (dopamine neurons [10]; 10 mg/Kg + MPTP) was 9.0 μg/gm and the Dopamine binding site (dopamine neurons [10]; 10 mg/Kg + MPTP) was 320 pmol/mg. For the same compound, the “fatality after oral administration” value [1] was “no fatality”, the ED50 (MAO-A [4]; 2 h) was 100 mg/kg and the “MAO-B ID50 (mg/Kg) / IC50 ([…] × 10^-6 M)” value (MAO-B [7]; mouse, in vivo, ip) was 6.6. The “inhibition of brain MAO-B activity in vivo (in words)” value (MAO-B [7]; mouse, in vivo, ip) was “more potent than the longer chain analogs at inhibiting brain MAO-B activity”, the “Ratio MAO-A/MAO-B” value (MAO-B [7]; mouse, in vivo, ip) was 50 and the ED50 (MAO-B [7]; mouse, ip, 2 h) was 2 mg/kg. The “Ratio MAO-A/MAO-B” value (MAO-B [8]; rat, liver mitochondrial membranes) was 200, the IC50 (MAO-B [8]) was 0.4 µM and the IC50 (MAO-A [9]) was 100 µM.
For `CC(C)NNC(=O)c1ccncc1` [Iproniazid], the “adverse effects leading to withdrawal” value [11] is listed as “hepatic toxicity and occasional hypertensive crises”.
In the case of `C#CCNC` [MP, N-Methylpropargylamine-HCl], the “DA IC50” value (monoamine oxidase) is reported as “inactive”, the solubility in water (Solubility in water) is reported as “infinite” and the “PE IC50” value (MAO-B [8]) is reported as “inactive”. The “5-HT IC50” value (MAO-A [9]) was “inactive”.
